The values below come from patent US20240299595A1, “CANCER THERANOSTIC COMPOSITIONS COMPRISING BIGUANIDE COMPLEXES OF GROUP 7 TRANSITION METALS AND USES THEREOF” (BOARD OF REGENTS, THE UNIVERSITY OF TEXAS SYSTEM, priority 2021, published 2024).

Structures are written as SMILES.

One series relates to BXPC-3. Briefly: MTT cytotoxicity, pancreatic cancer cell line BXPC-3. Format: cell-based. Here is the method:
(§1) To determine cytotoxicity of Re-Phen and Phenformin, different cell lines were exposed to different concentrations of the compounds and their viabilities were followed over time. Pancreatic cells were seeded in 96-well plates (5000 cells/well) overnight, and treated with Re-Phen (FIG. 13A) or phenformin (FIG. 13B) in concentrations ranging from 4.57×10−4 mM to 1.0 mM at 37° C. for 72 h. Cell viability was measured using the MTT assay. The absorption at 590 nm was measured with a microplate reader (SpectraMax, Molecular Device, San Diego, CA) to quantify cell numbers. The proportion of cells was normalized to that of untreated cells and expressed as mean±standard error of the mean (SEM) (n=6). The half-maximal inhibitory concentration (IC50) values were calculated by a sigmoidal dose-response (variable slope) curve-fitting using GraphPad Prism software.

Series [1] concerns orthotopic Kras* murine PDAC tumor. Briefly: Antitumor efficacy, syngeneic Kras* orthotopic PDAC model. The series is classed as in vivo, C57BL/6 mice. Conditions: 10 daily intraperitoneal injections, 50 mg/kg/injection. Here is the method:
FIG. 6A outlines an in vivo experiment assessing antitumor activity of Re-Phen against orthotopic Kras* murine PDAC tumor. Male C57BL/6 mice were inoculated in the pancreas with iKrasG12D murine tumor cells. Treatments were initiated on day 7 after tumor cells inoculation. Each mouse received 10 daily intraperitoneal injections of phenformin or Re-Phen at a dose of 50 mg/kg/injection (100 μL/mouse). Control mice received 50/50 (v/v) Cremorphor EL/absolute ethanol, further diluted at 1:4 (v/v) ratio with saline (100 μL/mouse) before injection.
For antitumor efficacy study, the syngeneic Kras* orthotopic PDAC model was used. Kras* PDAC cells established from transgenic mouse model of PDAC with inducible KrasG12D mutation were inoculated into the pancreas of 6-week-old female C57BL/6 mice (Taconic Biosciences, Rensselaer, NY). Treatments were initiated on day 7 after tumor cells inoculation when tumors were ˜5 mm in diameter. Each mouse received 10 daily intraperitoneal injections of phenformin or Re-Phen at a dose of 50 mg/kg/injection (100 μL/mouse) (FIG. 6A). Each drug was formulated in 50/50 (v/v) Cremorphor EL/absolute ethanol, which that was further diluted at 1:4 (v/v) ratio with saline before injection. Animals were weighted daily to record possible adverse effects. Animals were euthanized on day 16 after the last injection. Tumors were harvested and weighted, fixed in formalin, embedded in paraffin, and cut into 4-μm sections. Slides were immunohistochemically stained with the proliferation marker Ki67, counterstained with hematoxylin and visualized under a brightfield microscope at 100× or 200× magnification.

A further series concerns A2789-cp20. Briefly: MTT cytotoxicity, ovarian cancer cell line A2789-cp20. Format: cell-based. Conditions: 72 hours. Here is the method: (§2) Finally, a comparison study of the cytotoxicity of Re-Phen and phenformin in a panel of ovarian cancer cell lines by MTT assay after a 72 hour incubation period was conducted. Ovarian cells were seeded at 5000 cells/well in 96-well plates overnight, and treated with Re-Phen or phenformin in different concentrations (from 4.57×10^−4 mM to 1.0 mM in 3-fold increase) at 37° C. for 72 hours. Cell viability was measured using the MTT assay. The absorption at 590 nm was measured at microplate reader (SpectraMax, Molecular Device, San Diego, CA) to quantify cell numbers. The proportion of cells was normalized to that of untreated cells and expressed as mean±standard error of the mean (SEM) (n=5-6). The resulting reduced viability with half-maximal inhibitory concentration (IC50) values of mM were calculated by a sigmoidal dose-response (variable slope) curve-fitting using GraphPad Prism software. The data are shown in FIG. 19A (Re-Phen) and FIG. 19B (phenformin). […] In fact, Re-Phen is shown to display >2,000-fold and >5,000-fold higher cytotoxicity against OVACAR-8 and SKOV3 (Table 2) human ovarian cancer cell lines, respectively.

Another series concerns MiaPaca-2 PDAC cells. Briefly: MTT cytotoxicity, pancreatic cancer cell line MiaPaca-2. The conditions noted are these: for IC50: MTT, 72 h. Format: cell-based. Here is the method: as §1, with “Pancreatic cells were seeded in 96-well plates (5000 cells/well) overnight, and treated with Re-Phen (FIG. 13A) or phenformin (FIG. 13B) in concentrations ranging from 4.57×10−4 mM to 1.0 mM at 37° C. for 72 h.” left out

For series [2], the system named is PDAC cells. Briefly: Seahorse mito-stress test (oxygen consumption rate). The series is classed as cell-based. The conditions noted are these: 4-hour treatments, Seahorse XF24e.
Series [3] can be described thus: log P from octanol and PBS pH 7.4. The series is classed as physicochemical.
Series [4] has as its system PDAC cells. Briefly: Glycolytic ratio, YSI metabolic analyzer. Format: cell-based. The conditions noted are these: 30 μM, 24 hours. Here is the method:
The glycolytic ratio was obtained using a YSI metabolic analyzer after treatments with phenformin (30 μM) or Re-Phen (30 μM) for 24 hours. Wells with culture media but without cells were used for baseline reading. Data are presented as mean±SD (n=3). *p<0.05; **p<0.01.
Both Re-Phen and phenformin altered the mitochondrial functions and metabolic state of PDAC cells. The fluorescent intensities for both monomeric forms (Ex/Em=490/525 nm) and J-aggregates (Ex/Em=540/590 nm) of JC-10 change upon mitochondrial membrane polarization. Thus, an increase in the ratio of fluorescence intensities measured at 525 nm (monomeric form) over 590 nm (aggregates) represents a decrease in mitochondrial membrane potential.

A further series deals with OVCAR8. Briefly: MTT cytotoxicity, ovarian cancer cell line OVCAR8. Format: cell-based, human. Here is the method: as §2
Series [5] relates to normal cells (RAW264.7, NIH3T3, hTERT-HPNE). Put plainly: MTT cytotoxicity against normal cells. The series is classed as cell-based. The conditions noted are these: 72 hours. Here is the method:
Next, RAW264.7 (FIG. 14A), NIH3T3 (FIG. 14B), or hTERT-HPNE (FIG. 14C) cells were seeded in 96-well plates (5000 cells/well) overnight, and treated with Re-Phen or phenformin in concentrations ranging from 4.57×10−4 mM to 1.0 mM at 37° C. for 72 hours. Cell viability was measured using the MTT assay. The proportion of cells was normalized to that of untreated cells and expressed as mean±standard error of the mean (SEM) (n=5). The half-maximal inhibitory concentration (IC50) values were calculated by a sigmoidal dose-response (variable slope) curve-fitting using GraphPad Prism software.

As a reminder, the IC50 is the concentration that inhibits the measured activity by half. In general, logP refers to a log measure of how a compound divides between an organic and an aqueous phase. As to `[H]/N=C(/N)N/C(=N/[H])NCCc1ccccc1` [Phenformin, N-phenylethyl biguanide, reference compound], the 50% inhibitory concentration (IC50) in the series on BXPC-3 (Homo sapiens, BXPC-3, 72 h) worked out at 1100 µM; with A2789-cp20 it was 100 µM; with MiaPaca-2 PDAC cells (Homo sapiens, MIA PaCa-2), 13600 µM. Also, the “Ki67+ proliferating cells in tumors (IHC) compared to vehicle” value in series [1] is listed as “markedly reduced Ki67+ proliferating cells”. Further, the “change in body weight” value in series [1] is listed as “No significant change in body weight”. The “mitochondria respiration (OCR)” value in the series with PDAC cells [2] is recorded as “suppressed mitochondria respiration”. In series [3] (pH 7.4), this compound registered a logP of -0.72 ± 0.02. Further, the “compensatory glycolysis (glycolytic ratio, lactate produced to glucose consumed)” value in the series on PDAC cells [4] was “increased compensatory glycolysis”.

A word on the log P: it is the decadic logarithm of the partition coefficient of the neutral form, usually between octanol and water. Low readings indicate lower lipophilicity, high ones higher lipophilicity. For `N=C(N)NC(=N)NCCc1ccccc1.[C-]#[O+].[C-]#[O+].[C-]#[O+].[Re+]` [Re-Phen], the IC50 turned out to be 340 µM in the series on BXPC-3 (72 h); 260 µM with A2789-cp20; 110 µM in the series with OVCAR8 (MTT, 72 hours); 39 µM in the series with MiaPaca-2 PDAC cells. The “Ki67+ proliferating cells in tumors (IHC) compared to vehicle” value in series [1] is listed as “markedly reduced Ki67+ proliferating cells”. Also, the “change in body weight” value in series [1] is “No significant change in body weight”. Also, the “tumor size compared to vehicle control” value in series [1] is recorded as “significantly reduced tumor size”. Further, the “fold higher cytotoxicity against OVACAR-8” value in the series with OVCAR8 (Re-Phen versus phenformin, Table 2) was > 2,000 fold. In addition, the “fold higher cytotoxicity against MiaPaca-2 PDAC cells” value in the series on MiaPaca-2 PDAC cells (Re-Phen versus phenformin, Table 1) was “about 35 fold”. Also, in series [5], the “cytotoxicity against normal cells” value is recorded as “generally less cytotoxic than phenformin”. Also, the “mitochondria respiration (OCR)” value in the series with PDAC cells [2] is “suppressed mitochondria respiration”. In series [3] (octanol and phosphate-buffered saline (PBS) at pH 7.4), the lipophilicity (log P) turned out to be 1.07±0.08. The “compensatory glycolysis (glycolytic ratio, lactate produced to glucose consumed)” value with PDAC cells [4] is on record as “increased compensatory glycolysis”.
